{
  "source": "patent US20190202836A1",
  "about": "“SELECTIVE DUAL INHIBITORS OF PI3 DELTA AND GAMMA PROTEIN KINASES” (Rhizen Pharmaceuticals SA, priority 2014, published 2019)",
  "key": {"[1]": {"test_system": "male Balb/c mice", "assay": "Assay 13: Imiquimod induced plaque psoriasis in Balb/c mice model", "type": "in vivo", "settings": "imiquimod induced psoriasis, 3, 10, 30 mg/kg oral, compared to the control group", "procedure": "Imiquimod (IMQ) is a ligand for TLR7 and TLR8, originally used for the treatment of non-melanoma skin cancers. […] Animals (male Balb/c mice) were acclimatized for seven days prior to the start of the experiment. Animals were randomly distributed to various groups based on their body weights. On day 0, the back skin of the mice was shaved by topical application of hair removal cream. On day 1, mice were administered the test compound or vehicle by the oral route and after 1 hour the […] received a topical application of 62.5 mg of commercially available IMQ cream (5%; Beselna Cream; Mochida Pharmaceuticals, Tokyo, Japan) on the shaved back skin. The mice were treated with topical application of imiquimod for the next 5 consecutive days, one hour after test compound or vehicle administration. Animals were allowed to dry for one hour before returning to their cages after topical application on every day. Four hours after the final application of IMQ cream, the mice were killed and skin samples were obtained. Back skin thickness was measured using dial thickness gauge. After measuring skin thickness, skin samples were fixed in 10% neutral buffered formalin solution and embedded in paraffin. Deparaffinised sections were stained with hematoxylin-eosin (HE). Epidermal thickness was quantified by averaging the values of five independent fields per section. To score the severity of inflammation of the back skin, an objective scoring system was used based on the human clinical Psoriasis Area and Severity Index (PASI). Erythema, scaling, and thickening were scored independently on a scale from 0 to 4: 0=none; 1=slight; 2=moderate; 3=marked; and 4=very marked."}, "[2]": {"target": "T1, PI3K alpha (Mus musculus, UniProt P42337)", "T1 construct": "endogenous in cells; host or cells: 3T3 fibroblasts", "T1 sequence (P42337 whole entry)": "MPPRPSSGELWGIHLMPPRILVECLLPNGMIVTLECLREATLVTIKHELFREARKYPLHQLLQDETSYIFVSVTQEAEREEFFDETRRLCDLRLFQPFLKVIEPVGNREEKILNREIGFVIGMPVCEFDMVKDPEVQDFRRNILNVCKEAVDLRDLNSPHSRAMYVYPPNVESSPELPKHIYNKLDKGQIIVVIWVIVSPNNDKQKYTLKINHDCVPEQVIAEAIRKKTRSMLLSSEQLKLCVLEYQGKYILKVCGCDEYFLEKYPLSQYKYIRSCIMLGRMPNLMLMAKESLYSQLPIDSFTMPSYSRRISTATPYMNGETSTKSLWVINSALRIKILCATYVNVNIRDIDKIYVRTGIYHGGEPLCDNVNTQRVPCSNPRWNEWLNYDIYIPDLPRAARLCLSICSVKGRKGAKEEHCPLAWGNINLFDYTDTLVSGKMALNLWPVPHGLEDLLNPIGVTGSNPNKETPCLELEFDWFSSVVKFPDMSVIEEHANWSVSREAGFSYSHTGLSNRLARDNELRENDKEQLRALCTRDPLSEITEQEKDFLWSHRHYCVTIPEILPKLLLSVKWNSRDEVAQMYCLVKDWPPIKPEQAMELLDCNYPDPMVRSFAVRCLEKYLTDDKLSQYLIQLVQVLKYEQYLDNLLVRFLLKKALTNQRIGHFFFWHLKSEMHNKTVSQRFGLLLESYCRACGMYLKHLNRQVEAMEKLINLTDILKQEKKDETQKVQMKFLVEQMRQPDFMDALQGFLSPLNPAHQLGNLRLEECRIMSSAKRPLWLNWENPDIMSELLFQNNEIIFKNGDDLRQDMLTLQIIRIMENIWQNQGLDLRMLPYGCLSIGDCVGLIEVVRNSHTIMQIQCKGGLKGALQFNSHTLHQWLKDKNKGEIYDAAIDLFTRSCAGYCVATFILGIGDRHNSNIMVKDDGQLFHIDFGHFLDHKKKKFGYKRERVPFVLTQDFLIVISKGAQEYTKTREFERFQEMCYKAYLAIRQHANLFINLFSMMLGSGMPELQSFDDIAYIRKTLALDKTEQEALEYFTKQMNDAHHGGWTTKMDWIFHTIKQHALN", "T1 sequence (P26450 whole entry partner)": "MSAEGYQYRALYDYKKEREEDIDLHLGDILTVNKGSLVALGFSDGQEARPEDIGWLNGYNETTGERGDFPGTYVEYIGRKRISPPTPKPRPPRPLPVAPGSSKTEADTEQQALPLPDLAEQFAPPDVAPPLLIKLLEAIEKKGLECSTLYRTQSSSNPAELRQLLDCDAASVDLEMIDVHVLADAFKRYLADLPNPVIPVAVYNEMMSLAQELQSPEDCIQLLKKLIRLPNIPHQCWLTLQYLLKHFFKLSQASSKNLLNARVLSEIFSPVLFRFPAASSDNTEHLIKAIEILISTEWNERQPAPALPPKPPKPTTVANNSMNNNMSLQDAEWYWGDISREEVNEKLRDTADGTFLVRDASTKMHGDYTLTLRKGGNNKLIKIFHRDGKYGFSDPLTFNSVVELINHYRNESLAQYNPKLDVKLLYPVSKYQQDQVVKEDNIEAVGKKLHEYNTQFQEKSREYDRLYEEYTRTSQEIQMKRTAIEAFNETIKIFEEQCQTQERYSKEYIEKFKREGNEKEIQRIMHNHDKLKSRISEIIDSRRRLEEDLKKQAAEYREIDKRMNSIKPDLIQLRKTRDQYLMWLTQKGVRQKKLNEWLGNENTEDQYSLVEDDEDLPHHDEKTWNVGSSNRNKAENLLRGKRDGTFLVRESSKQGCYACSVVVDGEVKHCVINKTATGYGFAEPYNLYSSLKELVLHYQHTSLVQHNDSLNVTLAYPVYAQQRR", "assay": "Assay 4A4: PDGF induced Akt phosphorylation in 3T3 cells", "type": "cell-based", "settings": "3T3 fibroblasts", "procedure": "The objective of this study was to determine the effect of Compound A1 on PI3Kα kinase mediated AktS473 phosphorylation in PDGF induced 3T3 fibroblasts. • 3T3 cells were treated with desired concentrations of the test compound for 15 minutes. 1 ml of 2× PDGF was added such that the final concentration was 20 ng/ml and incubated for 10 minutes. • Media was discarded and washed with 1 ml of ice-cold 1× PBS. • 250 μl of cell lysis buffer was added and incubated on ice for 30 minutes. • Samples were centrifuged and supernatant was collected and stored at −80° C. until analysis. • Samples were analyzed by Western Blotting using pAKT (S473) as the primary and anti-rabbit IgG-HRP as a secondary antibody. • Intensity of the bands was determined using ImageJ 1.42q (NIH, USA) and normalized to Actin (loading control). Data was plotted using GraphPad Prism (Version 5.02)."}, "[3]": {"test_system": "Female Wistar rats", "assay": "Assay 11: Collagen induced arthritis (CIA) in Wistar rats", "type": "in vivo", "settings": "rat CIA, dosed therapeutically, 10 mg/kg/QD"}, "[4]": {"test_system": "pAKT in isolated mouse splenocytes", "assay": "Assay 6C: Inhibition of AKT phosphorylation in isolated mouse splenocytes", "type": "cell-based", "settings": "Splenocyte, 0.5 h, LPS 20 μg/mL, 30 minutes, ELISA, read-out: EC50, reduction in phosphorylation of AKT", "procedure": "The PI3K pathway is regulated downstream by AKT, a serine-threonine kinase that modulates several oncogenic processes such as cell proliferation, growth, and survival. Because the spleen is a repertoire for vast quantities of B- and T-lymphocytes, inhibition of LPS-induced AKT phosphorylation was determined ex vivo using isolated mouse splenocytes. Cells were plated and incubated with a desired concentration of Compound A1 for 15 minutes followed by induction with LPS (20 μg/mL) for 30 minutes. Following induction, cells were lysed and pAKT was determined by ELISA using pAKT^S473 capture/detection antibody pair and anti-mouse-HRP secondary antibody. Blank subtracted absorbance values were obtained to calculate percent inhibition of pAKT in test samples."}, "[5]": {"target": "T2, PI3K gamma (Mus musculus, UniProt Q9JHG7)", "T2 construct": "endogenous in cells; host or cells: RAW 264.7 macrophages", "T2 sequence (Q9JHG7 whole entry)": "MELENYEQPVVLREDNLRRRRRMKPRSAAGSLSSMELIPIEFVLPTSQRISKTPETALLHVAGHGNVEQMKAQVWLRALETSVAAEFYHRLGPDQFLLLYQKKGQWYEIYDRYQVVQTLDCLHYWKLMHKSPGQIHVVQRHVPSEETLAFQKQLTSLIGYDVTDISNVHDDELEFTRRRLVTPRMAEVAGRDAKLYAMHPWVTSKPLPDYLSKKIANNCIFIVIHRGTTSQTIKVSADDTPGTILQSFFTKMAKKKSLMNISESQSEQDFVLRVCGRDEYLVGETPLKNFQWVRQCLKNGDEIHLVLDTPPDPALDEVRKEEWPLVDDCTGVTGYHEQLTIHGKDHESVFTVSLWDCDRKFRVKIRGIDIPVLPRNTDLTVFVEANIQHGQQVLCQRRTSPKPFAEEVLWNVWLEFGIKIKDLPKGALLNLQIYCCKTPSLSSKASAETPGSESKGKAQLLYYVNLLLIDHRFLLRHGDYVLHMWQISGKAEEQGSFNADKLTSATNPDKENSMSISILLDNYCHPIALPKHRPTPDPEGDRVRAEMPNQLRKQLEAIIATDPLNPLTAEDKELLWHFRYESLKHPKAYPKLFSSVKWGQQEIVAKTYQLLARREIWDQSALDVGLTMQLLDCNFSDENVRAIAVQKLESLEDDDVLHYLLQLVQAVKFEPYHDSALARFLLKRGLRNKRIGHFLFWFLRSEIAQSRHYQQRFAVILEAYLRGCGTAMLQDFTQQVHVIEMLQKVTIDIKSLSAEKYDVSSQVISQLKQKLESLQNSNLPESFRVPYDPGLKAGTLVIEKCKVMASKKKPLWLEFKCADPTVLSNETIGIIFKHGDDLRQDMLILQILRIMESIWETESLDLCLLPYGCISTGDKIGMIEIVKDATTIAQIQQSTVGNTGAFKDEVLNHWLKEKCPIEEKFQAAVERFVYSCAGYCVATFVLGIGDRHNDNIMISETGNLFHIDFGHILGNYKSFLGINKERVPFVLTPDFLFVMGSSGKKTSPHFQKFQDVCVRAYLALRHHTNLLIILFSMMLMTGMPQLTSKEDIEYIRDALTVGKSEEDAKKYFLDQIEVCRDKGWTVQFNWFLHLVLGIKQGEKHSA", "assay": "Assay 4A3: c5a induced AktS473 phosphorylation in RAW 264.7 macrophages", "type": "cell-based", "settings": "c5a 50 ng/ml, read-out: Cellular IC50 PI3K gamma (c5a induced pAKT in RAW macrophages)", "procedure": "The objective of this study was to determine the effect of Compound A1 on PI3Kγ kinase mediated c5a induced AktS473 phosphorylation in RAW 264.7 macrophages.\nRAW 264.7 cells were treated with desired concentrations of the test compound for 15 minutes. 1 ml of 2× c5a was added such that the final concentration was 50 ng/ml and incubated for 15 minutes.\nMedia was discarded and washed with 1 ml of ice-cold 1× PBS.\n250 μl of cell lysis buffer was added and incubated on ice for 30 minutes.\nSamples were centrifuged and supernatant was stored at −80° C. until analysis\nSamples were analyzed by Western Blotting using pAKT (S473) as the primary and anti-rabbit IgG-HRP as a secondary antibody.\nIntensity of the bands was determined using ImageJ 1.42q (NIH, USA) and normalized to Actin (loading control). Data was plotted using GraphPad Prism (Version 5.02)."}, "[6]": {"test_system": "Female Wistar rats", "assay": "Assay 7: Lipopolysaccharide induced pulmonary neutrophilia in female Wistar rat model", "type": "in vivo", "settings": "10 mg/kg, oral, LPS intratracheally, BAL fluid 6 hours after LPS", "procedure": "After the quarantine period, fasted animals were randomized and divided into various groups depending on their body weights. The test compound (Compound A1) was prepared as a suspension in a vehicle consisting of 0.5% methylcellulose in which Tween 80 as a suspending agent. The compound or vehicle was administered by oral gavage at a volume of 10 mL/kg. Female Wistar rats were anaesthetized with ketamine and LPS solution was administered intratracheally one hour after compound administration at a dose of 1 mg/kg. 6 hours after LPS instillation, animals were exsanguinated under anaesthesia, and then the trachea was cannulated and the lungs were lavaged with 5 ml aliquots of heparinised PBS (1 unit/ml) four times through a tracheal cannula (total volume 20 mL). Bronchoalveolar lavage (BAL) fluid was stored at 2-8° C. until assayed for total cell and differential leukocyte count. Bronchioalveolar fluid was centrifuged (500×g for 10 minutes) and the resulting cell pellet was resuspended in 0.5 ml of heparinised saline. The total numbers of white blood cells were determined in BAL fluid or blood by using a blood cell counter and was adjusted to 1×10^6 cell/ml. Differential cell count was calculated manually. […] The number of each cell type among 300 white blood cells in the cell smear was determined and expressed as a percentage. The number of […] in each BALf or blood was calculated."}},
  "data": [
    {"smiles": "COc1ccc(-c2nn([C@@H](C)c3oc4cccc(F)c4c(=O)c3-c3cccc(F)c3)c3ncnc(N)c23)cc1NS(C)(=O)=O", "note": "[Compound A1, (S)—N-(5-(4-amino-1-(1-(5-fluoro-3-(3-fluorophenyl)-4-oxo-4H-chromen-2-yl)ethyl)-1H-pyrazolo[3,4-d]pyrimidin-3-yl)-2-methoxyphenyl)methanesulfonamide]", "values": [
      {"measurement": "back skin thickness", "setting": "[1]", "value": "reduced"},
      {"measurement": "erythema", "setting": "[1]", "value": "reduced"},
      {"measurement": "scaling", "setting": "[1]", "value": "reduced"},
      {"measurement": "inhibition of PDGF induced AktS473 phosphorylation at 10 μM", "setting": "[2]; 10 μM", "value": "No inhibition"},
      {"measurement": "IC50", "setting": "[2]; PDGF 20 ng/ml, read-out: Cellular IC50 PI3K alpha (PDGF induced pAKT in 3T3 fibroblasts)", "value": "> 10000", "unit": "nM"},
      {"measurement": "inhibition of cartilage (histopathology of all the hind and fore paws)", "setting": "[3]", "value": 46.51, "unit": "%"},
      {"measurement": "inhibition of inflammation (histopathology of all the hind and fore paws)", "setting": "[3]", "value": 58.3, "unit": "%"},
      {"measurement": "inhibition of pannus (histopathology of all the hind and fore paws)", "setting": "[3]", "value": 49.18, "unit": "%"},
      {"measurement": "reducing ankle diameter", "setting": "[3]", "value": "significant efficacy"},
      {"measurement": "reducing the average paw volumes of both the hind paws", "setting": "[3]", "value": "significant efficacy"},
      {"measurement": "reduction of the clinical score", "setting": "[3]; prophylactic and therapeutic paws", "value": "significant efficacy"},
      {"measurement": "EC50", "setting": "[4]", "value": 347, "unit": "nM"},
      {"measurement": "IC50", "setting": "[5]", "value": 51.7, "unit": "nM"},
      {"measurement": "inhibition of neutrophil infiltration into the lungs compared to the control group", "setting": "[6]", "value": 65.29, "unit": "%"}
    ]}
  ]
}
